Drawing on PubChem BioAssay AID256 (DTP/NCI, 2004), this text covers T/C for 21 compounds.

The assay concerns CD2F1 mice, L1210 leukemia ip, survival T/C. The experiment in a line: NCI In Vivo Anticancer Drug Screen. Data for tumor model L1210 Leukemia (intraperitoneal) in CD2F1 (CDF1) mice. The note with it: higher = longer survival. Put shortly:
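Compound-dosed mice with transplantable tumor versus matched vehicle controls; endpoint ratio T/C reported.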

The mark [1] stands for this setting: endpoint: mean survival time, dose: 100.0 mg/kg/injection, schedule: Q01DX009 (ip), vehicle: saline with Tween-80.
Where [2] appears, read: endpoint: mean survival time, dose: 200.0 mg/kg/injection, schedule: Q01DX009 (ip), vehicle: saline with Tween-80.
[3] abbreviates: endpoint: mean survival time, dose: 400.0 mg/kg/injection, schedule: Q01DX009 (ip), vehicle: saline with Tween-80.
Setting [4] is: endpoint: mean survival time, dose: 100.0 mg/kg/injection, schedule: Q04DX003 (ip), vehicle: saline.
Setting [5] is: endpoint: mean survival time, dose: 200.0 mg/kg/injection, schedule: Q04DX003 (ip), vehicle: saline.
[6] abbreviates: endpoint: mean survival time, dose: 100.0 mg/kg/injection, schedule: Q04DX003 (ip), vehicle: saline with Tween-80.
[7] abbreviates: endpoint: mean survival time, dose: 200.0 mg/kg/injection, schedule: Q04DX003 (ip), vehicle: saline with Tween-80.
Where [8] appears, read: endpoint: mean survival time, dose: 400.0 mg/kg/injection, schedule: Q04DX003 (ip), vehicle: saline with Tween-80.

Molecules are shown by their SMILES. “And” between values parts separate entries of the source, which are not always exact repeats. Equal values may be shown once. Inconclusive results and toxic doses are left out.

`O=C1NC(O)CCN1C1OC(CO)C(O)C1O` (stereo unspecified): the T/C (endpoint: median survival time, dose: 10.0 mg/kg/injection, schedule: Q01DX009 (ip), vehicle: saline) is 106 % of control and 107 % of control; the T/C (endpoint: median survival time, dose: 12.5 mg/kg/injection, schedule: Q01DX001 (oral), vehicle: saline) was 101 % of control; the T/C (endpoint: median survival time, dose: 21.88 mg/kg/injection, schedule: Q01DX009 (ip), vehicle: saline) is 102 % of control; the T/C (endpoint: median survival time, dose: 25.0 mg/kg/injection, schedule: Q01DX001 (oral), vehicle: saline) is 102 % of control; the T/C (endpoint: median survival time, dose: 30.0 mg/kg/injection, schedule: Q01DX009 (ip), vehicle: saline) was 104 % of control; the T/C (endpoint: median survival time, dose: 50.0 mg/kg/injection, schedule: Q01DX001 (oral), vehicle: saline) was 101 % of control. Besides, the T/C is, setting by setting: (endpoint: median survival time, dose: 100.0 mg/kg/injection, schedule: Q01DX001 (oral), vehicle: saline) 97 % of control; (endpoint: median survival time, dose: 100.0 mg/kg/injection, schedule: Q01DX009 (ip), vehicle: saline) 105 % of control; (endpoint: median survival time, dose: 200.0 mg/kg/injection, schedule: Q01DX001 (oral), vehicle: saline) 102 % of control; (endpoint: median survival time, dose: 300.0 mg/kg/injection, schedule: Q01DX009 (ip), vehicle: saline) 106 % of control; (endpoint: median survival time, dose: 1000.0 mg/kg/injection, schedule: Q01DX009 (ip), vehicle: saline) 100 % of control and 108 % of control.
As to `O=C1c2ccccc2C(=O)c2cc(S(=O)(=O)Cl)ccc21`, the T/C was 99 % of control (endpoint: mean survival time, dose: 100.0 mg/kg/injection, schedule: Q01DX009 (ip), vehicle: saline); 92 % of control (endpoint: mean survival time, dose: 200.0 mg/kg/injection, schedule: Q01DX009 (ip), vehicle: saline); 86 % of control (endpoint: mean survival time, dose: 400.0 mg/kg/injection, schedule: Q01DX009 (ip), vehicle: saline).
Turning to `C[n+]1cccc(NC(=O)c2ccc(NC(=O)c3ccc(C(=O)Nc4ccc(NC(=N)N)cc4)cc3)cc2)c1`, the T/C (endpoint: mean survival time, dose: 1.3 mg/kg/injection, schedule: Q01DX009 (ip), vehicle: saline) was 173 % of control; the T/C (endpoint: mean survival time, dose: 2.0 mg/kg/injection, schedule: Q01DX009 (ip), vehicle: saline) was 307 % of control; the T/C (endpoint: mean survival time, dose: 3.0 mg/kg/injection, schedule: Q01DX009 (ip), vehicle: saline) was 259 % of control; the T/C (endpoint: mean survival time, dose: 8.0 mg/kg/injection, schedule: Q01DX009 (ip), vehicle: saline) was 115 % of control; the T/C (endpoint: mean survival time, dose: 12.0 mg/kg/injection, schedule: Q01DX009 (ip), vehicle: saline) is 112 % of control; the T/C (endpoint: mean survival time, dose: 18.0 mg/kg/injection, schedule: Q01DX009 (ip), vehicle: saline) was 97 % of control.
On to `COC1CCC2CC1[N+](C)(C)C2` (stereo unspecified), for which the T/C (endpoint: mean survival time, dose: 12.5 mg/kg/injection, schedule: Q04DX002 (ip), vehicle: saline) is 96 % of control; the T/C (endpoint: mean survival time, dose: 25.0 mg/kg/injection, schedule: Q04DX002 (ip), vehicle: saline) was 101 % of control; the T/C (endpoint: mean survival time, dose: 50.0 mg/kg/injection, schedule: Q04DX002 (ip), vehicle: saline) is 101 % of control.
Consider `O=C(/C(=N\N=C\c1c(O)ccc2ccccc12)c1ccccc1)c1ccccc1`, for which the T/C under setting [1] is 93 % of control, the T/C under setting [2] is 90 % of control and the T/C under setting [3] was 92 % of control.
With `COc1ccc(-c2c(C(=O)O)cc(O)c3cc(OC)c(OC)cc23)cc1OC`, the T/C is, setting by setting: (endpoint: mean survival time, dose: 100.0 mg/kg/injection, schedule: Q01DX001 (ip), vehicle: saline) 97 % of control; (endpoint: mean survival time, dose: 200.0 mg/kg/injection, schedule: Q01DX001 (ip), vehicle: saline) 97 % of control; (endpoint: mean survival time, dose: 400.0 mg/kg/injection, schedule: Q01DX001 (ip), vehicle: saline) 92 % of control.
For `COc1cc(/C=C2\SC(=O)NC2=O)ccc1O`, the T/C under setting [1] was 105 % of control.
In the case of `CC1(C)CC(O)CC(C)(C)N1O`, the T/C (endpoint: mean survival time, dose: 50.0 mg/kg/injection, schedule: Q01DX009 (ip), vehicle: saline with Tween-80) is 102 % of control; the T/C under setting [1] was 103 % of control; the T/C under setting [4] is 97 % of control; the T/C under setting [2] is 96 % of control; the T/C under setting [5] was 94 % of control; the T/C (endpoint: mean survival time, dose: 400.0 mg/kg/injection, schedule: Q04DX003 (ip), vehicle: saline) was 97 % of control.
In the case of `Cc1cccc(NC(=O)NCCBr)c1`, the T/C was 100 % of control under setting [6], 88 % of control under setting [7] and 92 % of control under setting [8].
Take `CC(=O)/C=C/C=C\c1ccccc1`: the T/C was 104 % of control under setting [1], 94 % of control under setting [2] and 98 % of control under setting [3].
As to `Nc1nc2ncc(CSc3ccc(C(=O)NC(CCC(=O)O)C(=O)O)cc3)nc2c(=O)[nH]1` (stereo unspecified), the T/C was 107 % of control (endpoint: mean survival time, dose: 1.0 mg/kg/injection, schedule: Q01DX009 (ip), vehicle: sodium bicarbonate); 101 % of control (endpoint: mean survival time, dose: 2.0 mg/kg/injection, schedule: Q01DX009 (ip), vehicle: saline with Tween-80); 111 % of control (endpoint: mean survival time, dose: 2.0 mg/kg/injection, schedule: Q01DX009 (ip), vehicle: sodium bicarbonate); 101 % of control (endpoint: mean survival time, dose: 4.0 mg/kg/injection, schedule: Q01DX009 (ip), vehicle: saline with Tween-80); 124 % of control (endpoint: mean survival time, dose: 4.0 mg/kg/injection, schedule: Q01DX009 (ip), vehicle: sodium bicarbonate); 90 % of control (endpoint: mean survival time, dose: 5.4 mg/kg/injection, schedule: Q01DX009 (ip), vehicle: sodium bicarbonate). Also, the T/C was 104 % of control (endpoint: mean survival time, dose: 8.0 mg/kg/injection, schedule: Q01DX009 (ip), vehicle: saline with Tween-80); 97 % of control (endpoint: mean survival time, dose: 8.0 mg/kg/injection, schedule: Q01DX009 (ip), vehicle: sodium bicarbonate); 95 % of control (endpoint: mean survival time, dose: 12.0 mg/kg/injection, schedule: Q01DX009 (ip), vehicle: sodium bicarbonate); 97 % of control (endpoint: mean survival time, dose: 16.0 mg/kg/injection, schedule: Q01DX009 (ip), vehicle: saline with Tween-80); 113 % of control (endpoint: mean survival time, dose: 16.0 mg/kg/injection, schedule: Q01DX009 (ip), vehicle: sodium bicarbonate); 101 % of control (endpoint: mean survival time, dose: 32.0 mg/kg/injection, schedule: Q01DX009 (ip), vehicle: saline with Tween-80).
Consider `CC1(C)N=C(N)N=C(N)N1c1ccc(OCCCOc2ccc(S(=O)(=O)F)cc2)c(Cl)c1`, for which the T/C is 104 % of control (endpoint: mean survival time, dose: 6.25 mg/kg/injection, schedule: Q01DX009 (ip), vehicle: saline); 98 % of control (endpoint: mean survival time, dose: 12.5 mg/kg/injection, schedule: Q01DX009 (ip), vehicle: saline); 104 % of control (endpoint: mean survival time, dose: 25.0 mg/kg/injection, schedule: Q01DX009 (ip), vehicle: saline).
As to `CC(C)CCCCN(CCCCC(C)C)CC(O)c1cc2c(c3ccccc13)CCCC2` (stereo unspecified), the T/C is 94 % of control (endpoint: mean survival time, dose: 100.0 mg/kg/injection, schedule: Q01DX001 (ip), vehicle: saline with Tween-80); 97 % of control (endpoint: mean survival time, dose: 200.0 mg/kg/injection, schedule: Q01DX001 (ip), vehicle: saline with Tween-80); 102 % of control (endpoint: mean survival time, dose: 400.0 mg/kg/injection, schedule: Q01DX001 (ip), vehicle: saline with Tween-80).
For the compound `O=C(CBr)c1cc2ncccc2c2ccccc12`, for the setting “endpoint: mean survival time, dose: 100.0 mg/kg/injection, schedule: Q01DX009 (ip), vehicle: other”, the T/C is 101 % of control.
On to `OC[C@@H]1CCCN2CCCC[C@H]12`, for which the T/C runs as follows: (endpoint: mean survival time, dose: 25.0 mg/kg/injection, schedule: Q04DX003 (ip), vehicle: saline) 100 % of control; (endpoint: mean survival time, dose: 50.0 mg/kg/injection, schedule: Q04DX003 (ip), vehicle: saline) 107 % of control; under setting [4], 105 % of control.
Turning to `CCCCCCOc1ccc(/C=N\N=C\c2ccc(OCCCCCC)cc2)cc1`, the T/C runs as follows: under setting [6], 91 % of control; under setting [7], 89 % of control; under setting [8], 91 % of control.
As for `CC(=O)C[n+]1ccc(C)cc1Sc1ccccc1C`, the T/C is 98 % of control (endpoint: median survival time, dose: 25.0 mg/kg/injection, schedule: Q01DX009 (ip), vehicle: saline with Tween-80); 96 % of control (endpoint: median survival time, dose: 50.0 mg/kg/injection, schedule: Q01DX009 (ip), vehicle: saline with Tween-80); 98 % of control (endpoint: median survival time, dose: 100.0 mg/kg/injection, schedule: Q01DX009 (ip), vehicle: saline with Tween-80).
As to `CCCCCCOC(=O)C[n+]1ccc(C(N)=O)cc1`, the T/C under setting [4] is 101 % of control and the T/C under setting [5] is 94 % of control.
For the compound `CCCCCCC(/C=N\N=C\c1ccco1)=C\c1ccccc1`, the T/C under setting [1] was 92 % of control; the T/C under setting [6] was 90 % of control; the T/C under setting [2] was 92 % of control; the T/C under setting [7] was 100 % of control; the T/C under setting [3] is 100 % of control; the T/C under setting [8] is 90 % of control.
For `NC(=O)C(NCc1ccccc1)c1ccccc1` (stereo unspecified), the T/C was 94 % of control under setting [6] and 99 % of control under setting [7].
For the compound `ICC1COC(CI)CO1` (stereo unspecified), the T/C is 102 % of control under setting [1]; 105 % of control under setting [6]; 96 % of control under setting [2]; 110 % of control under setting [7]; 100 % of control under setting [3]; 100 % of control under setting [8].
